Data set [1] can be described thus: 5% mass reduction temperature (TG-DTA). The data set is classed as physicochemical. Here is the method:
(5% Mass Reduction Temperature)
The temperature, at which the mass of the sample is reduced by 5% by mass was measured using a Thermogravimeter-Differential Thermal Analyzer (TG-DTA) (manufactured by SII NanoTechnology Inc., “TG/DTA6200”) in an atmosphere of a nitrogen gas, at a heating rate (programming rate) of 10° C./min. The sample (cured product) was prepared as follows.
That is, 3 parts by mass of Irgacure 184 (manufactured by BASF Japan Ltd.) as a photopolymerization initiator was added to 100 parts by mass of the total amount of the acrylate compound (polymerization component) shown in Table 1 or 3 weighed in a brown bottle, and the mixture was heated to 120° C. for dissolution to obtain a curable composition. An UV irradiation (500 mJ/cm^2) was repeated 4 times on the obtained curable composition to prepare the cured product.

Data set [2] is described as follows: Solubility in various solvents. The data set is classed as physicochemical. Also noted: key to Solubility: A: Soluble; B: Some soluble, but turbid; C: Insoluble. As to conditions: for Solubility: stirred at 50° C. for 30 minutes. On the procedure: The sample 0.3 g was weighed in a sample bottle, the solvent was added by 0.7 g (condition 1: solid content of 30% by mass) or 1.0 g (condition 2: solid content of 23% by mass), and each of the obtained mixed solutions was stirred at a temperature of 50° C. for 30 minutes by using a bioshaker (manufactured by TAITEC CORPORATION, “BR-43FH”). Each of the mixed solutions after stirring was evaluated according to the following criteria. The used solvents were methyl ethyl ketone (MEK), methyl isobuthyl ketone (MIBK), ethyl acetate, propylene glycol monomethyl ether acetate (PGMEA), toluene, dimethylformamide (DMF), or cyclohexanone.
B: Some soluble, but turbid

Results on two compounds are retold here after patent US20230091908A1, “FLUORENE DERIVATIVE, METHOD FOR PRODUCING SAME, AND APPLICATION OF SAME” (Osaka Gas Chemicals Co., Ltd., priority 2019, published 2023).

SMILES strings stand for the structures.

On to `COC(=O)CCC1(CCC(=O)OC)c2cc(-c3ccc4ccccc4c3)ccc2-c2ccc(-c3ccc4ccccc4c3)cc21` [DNFDP-m, 9,9-bis(2-methoxycarbonylethyl)-2,7-di(2-naphthyl)fluorene], for which the “5% mass reduction temperature” value in data set [1] (compound as obtained) came to 390 °C.
With `C=CC(=O)OCCCC1(CCCOC(=O)C=C)c2cc(-c3ccc4ccccc4c3)ccc2-c2ccc(-c3ccc4ccccc4c3)cc21` [DNPOA, 9,9-bis(3-acryloyloxypropyl)-2,7-di(2-naphthyl)fluorene], the melting point (commonly the temperature, or range, at which the solid turns liquid) came to 120 °C. Further, the Solubility result in data set [2] (Cyclohexanone, solid content of 30% by mass) is listed as “A”. In data set [2] (DMF, solid content of 30% by mass), the Solubility entry is given as “A”. Further, the Solubility entry in data set [2] (Ethyl acetate, solid content of 30% by mass) is “A”. For the same compound, in data set [2] (MEK, solid content of 30% by mass), the Solubility result is given as “A”. The Solubility entry in data set [2] (MIBK, solid content of 30% by mass) was “A”. Moreover, the Solubility result in data set [2] (PGMEA, solid content of 23% by mass) is recorded as “A”. The Solubility result in data set [2] (PGMEA, solid content of 30% by mass) is reported as “B”. Also, in data set [2] (Toluene, solid content of 30% by mass), the Solubility entry was “A”. Further, in data set [2] (summary of Table 2), the “Solubility in various solvents (summary in words)” value was “high solubility in various solvents”. For the same compound, the “5% mass reduction temperature” value in data set [1] (cured product of the compound (UV cured, Irgacure 184), nitrogen, 10° C./min) came out at 382 °C.
